Reference: ChEMBL document CHEMBL1155968, “Synthesis, anticonvulsant and CNS depressant activity of some new bioactive 1-(4-substituted-phenyl)-3-(4-oxo-2-phenyl/ethyl-4H-quinazolin-3-yl)-urea” (Eur J Med Chem, 2009)
Calls of active or inactive are those of the source. The rule behind the calls is not given here.

Experiments:
Mus musculus [1] = experiment: Anticonvulsant activity in ip dosed albino mouse assessed as inhibition of maximal electric shock-induced seizures after 0.5 hrs; format: functional
Mus musculus [2] = experiment: Anticonvulsant activity in ip dosed albino mouse assessed as inhibition of maximal electric shock-induced seizures after 4 hrs; format: functional
Mus musculus [3] = experiment: Anticonvulsant activity in ip dosed albino mouse assessed as inhibition of subcutaneous pentylenetetrazole-induced seizure after 0.5 hrs; format: functional
Mus musculus [4] = experiment: Neurotoxicity in ip dosed albino mouse assessed as minimal motor impairment after 0.5 hrs by rotarod test; format: toxicity, organism-based; conditions: in vivo
Mus musculus [5] = experiment: Neurotoxicity in ip dosed albino mouse assessed as minimal motor impairment after 4 hrs by rotarod test; format: toxicity, organism-based; conditions: in vivo
Mus musculus [6] = experiment: Behavioral activity in albino mouse assessed as decrease in locomotor activity at 100 mg/kg, ip by actophotometer; format: functional; conditions: route intraperitoneal
Rattus norvegicus [7] = experiment: Antidepressant activity in Wistar rat assessed as increase in immobility time at 100 mg/kg, ip after 60 min by forced swim pool method; format: functional; conditions: route intraperitoneal
Mus musculus [8] = experiment: Anticonvulsant activity in ip dosed albino mouse assessed as inhibition of subcutaneous pentylenetetrazole-induced seizure after 4 hrs; format: functional
Rattus norvegicus [9] = experiment: Antidepressant activity against Wistar rat assessed as increase in immobility time at 30 mg/kg, ip after 60 mins by forced swim pool method; format: functional; conditions: route intraperitoneal

| SMILES | Activity (Mus musculus [1]) | Activity (Mus musculus [2]) | Activity (Mus musculus [3]) | Activity (Mus musculus [4]) | Activity (Mus musculus [5]) | inhibition in vivo at 100 mg/kg (Mus musculus [6]) [%] | Time (Rattus norvegicus [7]) [s] | Activity (Mus musculus [8]) | Time (Rattus norvegicus [9]) [s] |
| --- | --- | --- | --- | --- | --- | --- | --- | --- | --- |
| CCOc1ccc(NC(=O)Nn2c(CC)nc3ccccc3c2=O)cc1 | 300 mg/kg | inactive | inactive | 300 mg/kg | 300 mg/kg | 50 | 161.43 | inactive |  |
| CCc1ccc(NC(=O)Nn2c(CC)nc3ccccc3c2=O)cc1 | inactive | inactive | inactive | Not Active | Not Active | 58 | 227.54 | inactive |  |
| Cc1ccccc1NC(=O)Nn1c(-c2ccccc2)nc2ccccc2c1=O | inactive | inactive | inactive | Not Active | Not Active | 59 | 162.13 | inactive |  |
| NC(=O)N1c2ccccc2C=Cc2ccccc21 [CARBAMAZEPINE] | inactive | inactive | 300 mg/kg | Not Active | Not Active |  |  | inactive | 168.32 |
| CCOc1ccc(NC(=O)Nn2c(-c3ccccc3)nc3ccccc3c2=O)cc1 | inactive | inactive | inactive | 100 mg/kg | Not Active | 53 | 273.22 | inactive |  |
| CCc1nc2ccccc2c(=O)n1NC(=O)Nc1ccc([N+](=O)[O-])cc1 | 300 mg/kg | inactive | inactive | 100 mg/kg | Not Active | 41 | 212.72 | inactive |  |
| O=C(Nc1ccc(I)cc1)Nn1c(-c2ccccc2)nc2ccccc2c1=O | inactive | inactive |  | 300 mg/kg | Not Active | 60 | 181.15 |  |  |
| CCc1nc2ccccc2c(=O)n1NC(=O)Nc1cccc(C)c1 | inactive | inactive | inactive | Not Active | Not Active | 53 | 165.63 | inactive |  |
| CCc1ccc(NC(=O)Nn2c(-c3ccccc3)nc3ccccc3c2=O)cc1 | inactive | inactive | inactive | Not Active | Not Active | 61 | 213.13 | inactive |  |
| CCc1nc2ccccc2c(=O)n1NC(=O)Nc1ccc(Cl)cc1 | inactive | inactive | inactive | Not Active |  | 52 | 180.3 | inactive |  |
| CCc1nc2ccccc2c(=O)n1NC(=O)Nc1ccc(OC)cc1 | inactive | inactive | inactive | 300 mg/kg |  | 48 | 141.17 | inactive |  |
| CCc1nc2ccccc2c(=O)n1NC(=O)Nc1ccc(C)cc1 | 100 mg/kg | 300 mg/kg | inactive | 300 mg/kg | Not Active | 55 | 243.42 | inactive |  |
| O=C(Nc1ccc(F)cc1)Nn1c(-c2ccccc2)nc2ccccc2c1=O | inactive | inactive | inactive | Not Active | Not Active | 54 | 211.14 | inactive |  |
| CCc1nc2ccccc2c(=O)n1NC(=O)Nc1ccc(I)cc1 | inactive | inactive |  | Not Active | Not Active | 55 | 274.4 | inactive |  |
| CCc1nc2ccccc2c(=O)n1NC(=O)Nc1ccccc1C | inactive | inactive | inactive | Not Active | Not Active | 54 | 186.3 | inactive |  |
| CCc1nc2ccccc2c(=O)n1NC(=O)Nc1ccccc1 | 100 mg/kg | inactive | 300 mg/kg | 300 mg/kg |  | 54 | 170.1 | inactive |  |
| CCC1(c2ccccc2)C(=O)NC(=O)NC1=O [PHENOBARBITAL] | inactive | inactive | 300 mg/kg | Not Active | Not Active |  |  | inactive |  |
| O=C(Nc1ccc([N+](=O)[O-])cc1)Nn1c(-c2ccccc2)nc2ccccc2c1=O | 300 mg/kg | inactive | 300 mg/kg | 300 mg/kg | Not Active | 42 | 199.19 | inactive |  |
| O=C1NC(=O)C(c2ccccc2)(c2ccccc2)N1 [PHENYTOIN] | 30 mg/kg | 100 mg/kg | 100 mg/kg | 100 mg/kg | 300 mg/kg | 69 |  | 300 mg/kg |  |
| Cc1ccc(NC(=O)Nn2c(-c3ccccc3)nc3ccccc3c2=O)cc1 | inactive | inactive | inactive | 300 mg/kg | Not Active | 54 | 205.22 | inactive |  |
| O=C(Nc1ccccc1)Nn1c(-c2ccccc2)nc2ccccc2c1=O | inactive | inactive | inactive | 300 mg/kg | Not Active | 56 | 186.46 | inactive |  |
| COc1ccc(NC(=O)Nn2c(-c3ccccc3)nc3ccccc3c2=O)cc1 | inactive | inactive | 300 mg/kg | 300 mg/kg | Not Active | 52 | 229.15 | inactive |  |
| CCCC(CCC)C(=O)[O-].[Na+] [VALPROATE SODIUM] | 100 mg/kg | 30 mg/kg | 30 mg/kg | 100 mg/kg | 300 mg/kg |  |  | 300 mg/kg |  |
| CCc1nc2ccccc2c(=O)n1NC(=O)Nc1ccc(F)cc1 | inactive | inactive | inactive | Not Active | Not Active | 51 | 248.32 | inactive |  |
| O=C(Nc1ccc(Br)cc1)Nn1c(-c2ccccc2)nc2ccccc2c1=O | 100 mg/kg | 300 mg/kg | 300 mg/kg | 300 mg/kg | Not Active | 58 | 228.53 | inactive |  |
| CCc1nc2ccccc2c(=O)n1NC(=O)Nc1ccc(Br)cc1 | inactive | inactive |  | 300 mg/kg | Not Active | 54 | 222.2 |  |  |
| Cc1cccc(NC(=O)Nn2c(-c3ccccc3)nc3ccccc3c2=O)c1 | inactive | inactive | inactive | Not Active | Not Active | 59 | 171.24 | inactive |  |
| O=C(Nc1ccc(Cl)cc1)Nn1c(-c2ccccc2)nc2ccccc2c1=O | 300 mg/kg | inactive | 300 mg/kg | 300 mg/kg | Not Active | 55 | 218.5 | inactive |  |
